Assay [1] concerns wt FLT3-expressing leukemia cell lines. As to the kind of experiment: FLT3 protein in wt FLT3-expressing leukemia cell lines (immunoblot). It counts as cell-based, human. The note with it: approximately 23 hours of treatment. On the procedure: (§1) Protein lysate preparation, immunoblotting, and immunoprecipitation were carried out as previously described in Weisberg et al. (2002) Cancer Cell 1:433-443.
(Immunoblotting shows a protein as a band on a membrane.)

Assay [2] has as its system panel of 33 recombinant DUB enzymes. The note with it: 10 μM compound; diubiquitin as substrate. As for the experimental part: […] […] The enzymes were pre-incubated with the compounds for 30 min at room temperature at 10 μM final concentration. 0.48 μl of di-ubiquitin topoisomers were added to the reaction mixture to initiate the reaction. The reaction was sealed and incubated for 30 min at room temperature and stopped by adding TFA to a final concentration of 2% (v/v).
Mass spectrometry data was acquired on an UltrafleXtreme MALDI-TOF mass spectrometer (Bruker Daltonics) with Compass 1.3 control and processing software. The sample carrier was taught before each analysis to optimize and centre laser shooting. […] Samples were analysed in automatic mode (AutoXecute, Bruker Daltonics). […] An amount of 3,500 shots were summed up in “random walk” and with “large” smartbeam laser focus. Spectra were automatically calibrated on the ^15N-Ub m/z and processed using smoothing (Savitzky-Golay algorithm) and baseline subtraction (‘TopHat’) for reproducible peak annotation on non-resolved isotope distributions: one cycle, 0.2 m/z for the width. For area calculation, the complete isotopic distribution was taken into account. An in-house made script was used to report—^15N and mono-ubiquitin areas; plotting of graphs, calculation of standard deviation and coefficient of variation (%) were processed in Microsoft Excel.

In the next assay the test system is MOLM13 and MOLM14 cells. Nature of the assay: p53 levels in AML cell lines (immunoblot). It counts as cell-based, human.
Excerpt: (§2) The following antibodies were purchased from Cell Signaling Technology (Danvers, Mass.): total AKT (rabbit, #9272) and total p44/42 MAPK (Erk1/2) (3A7) (mouse, #9107) were used at 1:1000 dilution. Anti-GAPDH (D16H-11) XP (R) (rabbit mAb, #5174) was used at 1:1000 dilution. Beclin-1 (rabbit, #3738) was used at 1:1000. USP10 (D7A5) (rabbit, #8501) was used at 1:1000 dilution. P53 (rabbit, #9282) was used at 1:1000 dilution. β-tubulin (rabbit, #2146s) was used 1:1000.
as §1

The next assay relates to Ba/F3-FLT3-ITD cells. Nature of the assay: Proliferation of Ba/F3-FLT3-ITD cells. The class given is cell-based, murine. From the text: Nomo-1, P31-FUJ, and NB4 were obtained from Dr. Gary Gilliland. MV4, 11 cells were obtained from Dr. Anthony Letai. Hel, K562, THP, U937, TF-1 and K052 cells were purchased from the American Type Culture Collection (ATCC) (Manassas, Va., USA). […] Cell lines were submitted for cell line authentication and were authenticated within 6 months of manuscript preparation through cell line short tandem repeat (STR) profiling (DDC Medical, Fairfield, Ohio and Molecular Diagnostics Laboratory, Dana Farber Cancer Institute). […] PBMCs were generously provided by Dr. Steven Treon and Dr. Guang Yang.
The CellTiter-Glo® assay (Promega, Madison, Wis.) was used for proliferation studies and carried out according to manufacturer instructions. Cell viability is reported as percentage of control (untreated) cells, and error bars represent the standard error of the mean for each data point.

Another assay deals with USP10 (Homo sapiens, UniProt Q14694). As to the kind of experiment: MALDI TOF DUB assay with diubiquitin substrate. It counts as biochemical. The note with it: diubiquitin (K11) as substrate. As for the experimental part: Thirty-one human DUBs were freshly diluted in the reaction buffer (40 mM Tris-HCl, pH 7.6, 5 mM DTT, 0.005% BSA) at different concentrations (see Table 10). […] The enzymes were pre-incubated with the compounds for 30 min at room temperature at 10 μM final concentration. 0.48 μl of di-ubiquitin topoisomers were added to the reaction mixture to initiate the reaction. The reaction was sealed and incubated for 30 min at room temperature and stopped by adding TFA to a final concentration of 2% (v/v).
Mass spectrometry data was acquired on an UltrafleXtreme MALDI-TOF mass spectrometer (Bruker Daltonics) with Compass 1.3 control and processing software. The sample carrier was taught before each analysis to optimize and centre laser shooting. […] Samples were analysed in automatic mode (AutoXecute, Bruker Daltonics). […] An amount of 3,500 shots were summed up in “random walk” and with “large” smartbeam laser focus. Spectra were automatically calibrated on the ^15N-Ub m/z and processed using smoothing (Savitzky-Golay algorithm) and baseline subtraction (‘TopHat’) for reproducible peak annotation on non-resolved isotope distributions: one cycle, 0.2 m/z for the width. For area calculation, the complete isotopic distribution was taken into account. […]

For the next assay, the system named is MOLM14 cells. As to the kind of experiment: Immunoblot of FLT3, Beclin-1, AKT, ERK1/ERK2 in MOLM14 cells. The class given is cell-based, human.
Excerpt: as §2
FLT3/Flk-2 (C-20) (sc-479) and Ub (P4D1) (mouse, sc-8017) were purchased from Santa Cruz Biotechnology, Inc. (Dallas, Tex.) and used at 1:1000 dilution for immunoblotting. Anti-pTyr (mouse, clone 4G10) was purchased from Upstate Biotechnology (Lake Placid, N.Y.) and was used at 1:1000 dilution. Anti-HAUSP/USP7 antibody (rabbit, ab4080) and anti-ubiquitin antibody (rabbit, ab7780) were purchased from Abcam (Cambridge, Mass.) and used at 1:1000 dilution.
as §1

USP10, sequence (Q14694 whole entry): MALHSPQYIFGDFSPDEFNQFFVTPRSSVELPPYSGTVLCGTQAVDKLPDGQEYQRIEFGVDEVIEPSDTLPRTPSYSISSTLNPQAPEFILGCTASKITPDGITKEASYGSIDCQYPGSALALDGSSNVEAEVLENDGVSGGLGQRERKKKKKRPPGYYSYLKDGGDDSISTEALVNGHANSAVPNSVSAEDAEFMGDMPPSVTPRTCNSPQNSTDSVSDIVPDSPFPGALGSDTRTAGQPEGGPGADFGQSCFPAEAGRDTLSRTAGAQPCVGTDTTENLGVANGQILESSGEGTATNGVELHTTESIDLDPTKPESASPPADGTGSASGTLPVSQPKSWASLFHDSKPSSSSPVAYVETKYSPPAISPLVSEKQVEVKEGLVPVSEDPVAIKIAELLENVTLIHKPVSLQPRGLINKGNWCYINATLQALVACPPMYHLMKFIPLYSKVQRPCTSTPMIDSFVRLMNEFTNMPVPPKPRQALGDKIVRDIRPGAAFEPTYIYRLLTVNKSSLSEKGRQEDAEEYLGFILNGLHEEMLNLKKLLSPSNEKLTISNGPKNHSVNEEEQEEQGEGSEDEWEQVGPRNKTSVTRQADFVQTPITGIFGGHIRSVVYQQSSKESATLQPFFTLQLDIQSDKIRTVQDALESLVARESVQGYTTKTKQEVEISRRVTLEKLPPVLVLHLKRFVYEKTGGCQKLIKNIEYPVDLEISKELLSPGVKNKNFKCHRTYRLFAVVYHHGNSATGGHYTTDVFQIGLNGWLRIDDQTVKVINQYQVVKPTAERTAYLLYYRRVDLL

`CN(CCCNC(=O)c1ccc2nc3c(c(Cl)c2c1)CCCC3)Cc1ccccc1` [HBX19818, reference compound]: in assay [1], the FLT3 protein entry is reported as “little to no impact”. Further, the “Inhibition of DUBs other than USP10” value in assay [2] is at most 20%. For the same compound, in the assay on MOLM13 and MOLM14 cells, the p53 levels entry is “did not result in a decrease of p53 levels”. Further, the “Proliferation EC50” value in the assay on Ba/F3-D835Y cells and with Ba/F3-FLT3-ITD cells was “single digit micromolar range” throughout. The compound also gave an IC50 at USP10 of 14 µM. In the assay with MOLM14 cells (20 μM), the “Protein levels of Beclin-1 and FLT3” value is given as “strongly decreased”. For the same compound, the “Expression of AKT and ERK1/ERK2 downstream of FLT3” value in the assay on MOLM14 cells (approximately 23 hours of treatment) is recorded as “unchanged”.

For orientation: IC50 means the point on the concentration scale where inhibition reaches its midpoint.

For the origin of these results see patent US11136409B2, “Compositions and methods for identification, assessment, prevention, and treatment of AML using USP10 biomarkers and modulators” (Dana-Farber Cancer Institute, Inc., priority 2016, dated 2021).
